Measured values as given in PMC7933434, “Entropy-driven binding of gut bacterial β-glucuronidase inhibitors ameliorates irinotecan-induced toxicity” (Communications Biology, 2021).
pIC50: −log10 of the molar value. “And” between values parts separate entries of the source, which are not always exact repeats. Equal values may be shown once. “Also recorded” adds a separate entry of the source.

Experiments:
BALB/c mice [1] = assay: In vivo diarrhea test (CPT-11); set-up: species or system mouse; key to Diarrhea Score: 0: Normal stool; 1: Slight perianal staining of the coat; 2: Moderate perianal staining of the coat; 3: Watery mucosal-infused stool with severe perianal staining of the coat; Death
patients = patients taking irinotecan; cited from earlier work
HsGUS (human GUS) = target: T1, HsGUS (human GUS) (Homo sapiens, UniProt P08236); assay: GUS inhibition assay, hydrolysis of 4-methylumbelliferyl-β-glucuronide, HsGUS; format: biochemical; details: HsGUS; at 1 mM; read-out: percentage of inhibition
T1 construct: HsGUS was prepared as described[37]; made in house
T1 sequence (P08236 23-651): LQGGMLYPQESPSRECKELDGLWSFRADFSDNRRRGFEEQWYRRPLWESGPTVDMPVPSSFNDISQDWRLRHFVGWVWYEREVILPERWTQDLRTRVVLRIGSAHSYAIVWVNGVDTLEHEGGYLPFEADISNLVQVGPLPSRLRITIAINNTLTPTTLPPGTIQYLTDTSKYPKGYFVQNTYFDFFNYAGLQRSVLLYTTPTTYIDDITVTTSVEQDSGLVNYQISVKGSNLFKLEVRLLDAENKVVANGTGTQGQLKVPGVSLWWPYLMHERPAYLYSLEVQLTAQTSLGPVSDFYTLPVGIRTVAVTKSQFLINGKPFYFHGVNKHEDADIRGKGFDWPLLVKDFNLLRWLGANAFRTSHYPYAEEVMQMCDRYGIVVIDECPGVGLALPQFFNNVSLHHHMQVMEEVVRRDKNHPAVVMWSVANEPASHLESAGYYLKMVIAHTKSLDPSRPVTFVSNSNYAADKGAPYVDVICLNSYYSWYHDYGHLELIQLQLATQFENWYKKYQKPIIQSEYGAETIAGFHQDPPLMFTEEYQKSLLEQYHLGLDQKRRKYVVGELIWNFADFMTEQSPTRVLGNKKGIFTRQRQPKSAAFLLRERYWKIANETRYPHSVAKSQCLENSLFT

[2] = target: EcGUS (Escherichia coli GUS) (Escherichia coli, UniProt P05804); assay: biochemical
BALB/c mice [3] = assay: Colon histology (hematoxylin and eosin) after oral gavage; format: in vivo, mouse; details: female BALB/c mice; oral gavage for 5 days; 3 at 37.5 mg per kg body weight, ASN03273363 at 65 mg
[4] = Day 6, individual mice (Box 1-8)
[5] = Day 7, individual mice (Box 1-8)
[6] = Day 8, individual mice (Box 1-8)
[7] = Day 9, individual mice (Box 1-8)
[8] = Day 10, individual mice (Box 1-8)
[9] = Day 11, individual mice (Box 1-8)
[10] = Day 12, individual mice (Box 1-8)

EcGUS (Escherichia coli GUS), sequence (P05804 whole entry): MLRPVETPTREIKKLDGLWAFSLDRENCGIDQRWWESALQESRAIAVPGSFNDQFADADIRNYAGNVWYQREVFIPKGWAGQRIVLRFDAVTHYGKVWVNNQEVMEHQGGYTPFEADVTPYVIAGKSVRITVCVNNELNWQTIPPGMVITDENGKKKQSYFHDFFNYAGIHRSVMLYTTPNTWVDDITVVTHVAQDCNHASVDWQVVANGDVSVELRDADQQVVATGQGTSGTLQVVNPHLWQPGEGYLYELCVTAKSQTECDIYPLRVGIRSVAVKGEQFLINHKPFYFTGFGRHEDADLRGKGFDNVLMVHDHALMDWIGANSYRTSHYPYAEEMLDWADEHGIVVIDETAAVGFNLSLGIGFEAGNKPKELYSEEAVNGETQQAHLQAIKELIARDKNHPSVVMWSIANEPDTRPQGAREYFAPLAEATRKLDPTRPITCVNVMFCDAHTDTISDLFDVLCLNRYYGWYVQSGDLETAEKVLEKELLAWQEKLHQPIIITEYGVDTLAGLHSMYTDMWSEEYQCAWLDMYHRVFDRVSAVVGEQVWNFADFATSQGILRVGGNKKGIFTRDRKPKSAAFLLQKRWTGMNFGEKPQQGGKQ

CCc1c2c(nc3ccc(OC(=O)N4CCC(N5CCCCC5)CC4)cc13)-c1cc3c(c(=O)n1C2)COC(=O)[C@]3(O)CC [CPT-11, Irinotecan]
diarrhea (BALB/c mice [1]; BALB/c mice, CPT-11 only, 30 mg per kg daily, 10 days): developed diarrhea on day 7, until they reached a peak on day 11; also recorded: severe diarrhea from days 7–11 | Diarrhea Score, mean (BALB/c mice [1]; Day 6, group mean): 0.0 | Diarrhea Score (BALB/c mice [1]; [4]): 0 | Diarrhea Score, mean (BALB/c mice [1]; Day 7, group mean): 0.0 | Diarrhea Score (BALB/c mice [1]; [5]): 0 | Diarrhea Score, mean (BALB/c mice [1]; Day 8, group mean): 0.25 | Diarrhea Score (BALB/c mice [1]; [6]): 0 and 2 | Diarrhea Score, mean (BALB/c mice [1]; Day 9, group mean): 0.429 | Diarrhea Score (BALB/c mice [1]; [7]): 0 and D and 3 | Diarrhea Score, mean (BALB/c mice [1]; Day 10, group mean): 1.6 | Diarrhea Score (BALB/c mice [1]; [8]): 0 and D and 3 and 2 | Diarrhea Score, mean (BALB/c mice [1]; Day 11, group mean): 2.3 | Diarrhea Score (BALB/c mice [1]; [9]): 1 and D and 3 and 2 | Diarrhea Score, mean (BALB/c mice [1]; Day 12, group mean): 2.1 | Diarrhea Score (BALB/c mice [1]; [10]): 3 and 0 and D | Mean ± SEM of Diarrhea score (BALB/c mice [1]; day 9, Welch's unpaired t-test table): 0.0 ± 0.0 N=7 | Mean ± SEM of Diarrhea score (BALB/c mice [1]; day 10, Welch's unpaired t-test table): 0.0 ± 0.0 N=7 | Mean ± SEM of Diarrhea score (BALB/c mice [1]; day 11, Welch's unpaired t-test table): 0.2857 ± 0.1844 N=7 | Mean ± SEM of Diarrhea score (BALB/c mice [1]; day 12, Welch's unpaired t-test table): 0.3333 ± 0.2108 N=6 | patients at high risk of death owing to neutropenia (patients): ~ 3.5% | patients becoming dehydrated (patients): ~ 10% | patients suffering from severe delayed diarrhea (patients): 87%

CCCCCC[C@@H]1NC[C@@H](O)[C@H](O)[C@H]1CO [Compound 12]
inhibition at 1000 µM (HsGUS (human GUS)): 0.6% | pIC50 [2]: 4.60

CCCCCCCCC[C@@H]1NC[C@@H](O)[C@H](O)[C@H]1CO [Compound 13]
inhibition at 1000 µM (HsGUS (human GUS)): -0.5% | pIC50 [2]: 5.44

CCCCCC[C@@H]1NC[C@@H](O)[C@H](O)[C@H]1C(=O)O [Inhibior 3]
Diarrhea Score, mean (BALB/c mice [1]; Day 6, group mean): 0.0 | Diarrhea Score (BALB/c mice [1]; [4]): 0 | Diarrhea Score, mean (BALB/c mice [1]; Day 7, group mean): 0.0 | Diarrhea Score (BALB/c mice [1]; [5]): 0 | Diarrhea Score, mean (BALB/c mice [1]; Day 8, group mean): 0.0 | Diarrhea Score (BALB/c mice [1]; [6]): 0 | Diarrhea Score, mean (BALB/c mice [1]; Day 9, group mean): 0.0 | Diarrhea Score (BALB/c mice [1]; [7]): 0 | Diarrhea Score, mean (BALB/c mice [1]; Day 10, group mean): 0.0 | Diarrhea Score (BALB/c mice [1]; [8]): 0 | Diarrhea Score, mean (BALB/c mice [1]; Day 11, group mean): 0.0 | Diarrhea Score (BALB/c mice [1]; [9]): 0 | Diarrhea Score, mean (BALB/c mice [1]; Day 12, group mean): 0.0 | Diarrhea Score (BALB/c mice [1]; [10]): 0

CCOc1ccc(NC(=S)N(CCO)Cc2cc3cc(C)cc(C)c3[nH]c2=O)cc1 [ASN03273363, reference compound]
health of the epithelial layer and intestinal glandular structure (hematoxylin and eosin staining) (BALB/c mice [3]): neither compound affected the health of the epithelial layer or the intestinal glandular structure

CCC[C@@H]1NC[C@@H](O)[C@H](O)[C@H]1CO [Compound 11]
inhibition at 1000 µM (HsGUS (human GUS)): 4.5% | pIC50 [2]: 3.56
